ChEMBL document CHEMBL1641539 (Bioorg Med Chem Lett, 2011)

Legend:
[1] = target: Mitogen-activated protein kinase 10 (Homo sapiens, UniProt P53779); test: Inhibition of recombinant JNK3 after 60 mins by TR-FRET assay
[2] = target: Mitogen-activated protein kinase 14 (Homo sapiens, UniProt Q16539); test: Inhibition of recombinant p38alpha after 60 mins by TR-FRET assay
[3] = target: Mitogen-activated protein kinase 8 (Homo sapiens, UniProt P45983); test: Inhibition of recombinant JNK1 after 60 mins by TR-FRET assay
Sequence of Mitogen-activated protein kinase 8 (P45983 whole entry): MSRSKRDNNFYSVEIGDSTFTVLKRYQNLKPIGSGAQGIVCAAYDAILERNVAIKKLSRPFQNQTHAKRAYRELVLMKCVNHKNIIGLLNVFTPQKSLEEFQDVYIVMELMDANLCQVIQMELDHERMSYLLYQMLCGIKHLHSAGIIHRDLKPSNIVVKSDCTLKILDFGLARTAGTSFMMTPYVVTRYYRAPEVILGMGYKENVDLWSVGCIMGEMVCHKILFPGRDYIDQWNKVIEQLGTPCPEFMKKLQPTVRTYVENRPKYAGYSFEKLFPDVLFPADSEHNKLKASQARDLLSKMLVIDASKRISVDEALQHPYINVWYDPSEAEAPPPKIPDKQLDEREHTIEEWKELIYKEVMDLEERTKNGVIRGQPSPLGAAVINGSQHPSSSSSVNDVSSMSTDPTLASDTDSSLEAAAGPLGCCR

[4] = target: Mitogen-activated protein kinase 1 (Homo sapiens, UniProt P28482); test: Inhibition of recombinant ERK2 after 60 mins by TR-FRET assay
Sequence of Mitogen-activated protein kinase 1 (P28482 whole entry): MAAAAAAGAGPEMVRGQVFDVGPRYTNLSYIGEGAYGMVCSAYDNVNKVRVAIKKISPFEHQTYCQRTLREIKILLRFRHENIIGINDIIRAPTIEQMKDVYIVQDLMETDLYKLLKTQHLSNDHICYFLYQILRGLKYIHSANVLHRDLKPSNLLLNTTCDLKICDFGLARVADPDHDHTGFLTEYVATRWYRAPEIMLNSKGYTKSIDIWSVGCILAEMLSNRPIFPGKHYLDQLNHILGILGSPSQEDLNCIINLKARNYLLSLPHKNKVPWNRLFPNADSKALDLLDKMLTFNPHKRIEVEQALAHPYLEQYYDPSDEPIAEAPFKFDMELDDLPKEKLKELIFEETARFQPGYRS

[5] = target: Mitogen-activated protein kinase 9 (Homo sapiens, UniProt P45984); test: Inhibition of recombinant JNK2 after 60 mins by TR-FRET assay
Sequence of Mitogen-activated protein kinase 9 (P45984 whole entry): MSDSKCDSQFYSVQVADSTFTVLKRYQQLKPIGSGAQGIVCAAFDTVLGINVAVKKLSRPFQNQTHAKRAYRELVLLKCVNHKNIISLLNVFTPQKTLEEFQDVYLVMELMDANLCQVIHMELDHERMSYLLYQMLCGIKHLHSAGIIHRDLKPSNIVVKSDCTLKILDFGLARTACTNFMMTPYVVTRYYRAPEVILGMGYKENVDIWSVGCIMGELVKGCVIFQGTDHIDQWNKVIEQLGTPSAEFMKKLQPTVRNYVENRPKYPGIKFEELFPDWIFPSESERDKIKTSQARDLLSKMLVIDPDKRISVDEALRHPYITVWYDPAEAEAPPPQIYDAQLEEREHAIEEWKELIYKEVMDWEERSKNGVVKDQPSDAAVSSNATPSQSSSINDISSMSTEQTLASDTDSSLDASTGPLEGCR

[6] = Oxidative metabolic stability in human liver microsomes assessed as compound remaining at 2 uM after 30 mins; type: ADME, Microsome; details: read-out: Stability
[7] = Efflux ratio, ratio of permeability from apical to basolateral in MDCK2 cells over expressing MDR1 in presence of P-gp inhibitor to permeability from apical to basolateral in MDCK2 cells over expressing MDR1 in absence of P-gp inhibitor at 5 uM after 120 mins; type: ADME, cell-based, Canis lupus familiaris; details: dog, mdck-ii, 2 h
[8] = Apparent permeability of the compound from apical to basolateral direction in MDCK2 cells at 5 uM after 120 mins; type: ADME, cell-based, Canis lupus familiaris, MDCK-II; details: dog, MDCK
[9] = Oxidative metabolic stability in mouse liver microsomes assessed as compound remaining at 2 uM after 30 mins; type: ADME, Microsome; details: read-out: Stability

Sequence of Mitogen-activated protein kinase 14 (Q16539 whole entry): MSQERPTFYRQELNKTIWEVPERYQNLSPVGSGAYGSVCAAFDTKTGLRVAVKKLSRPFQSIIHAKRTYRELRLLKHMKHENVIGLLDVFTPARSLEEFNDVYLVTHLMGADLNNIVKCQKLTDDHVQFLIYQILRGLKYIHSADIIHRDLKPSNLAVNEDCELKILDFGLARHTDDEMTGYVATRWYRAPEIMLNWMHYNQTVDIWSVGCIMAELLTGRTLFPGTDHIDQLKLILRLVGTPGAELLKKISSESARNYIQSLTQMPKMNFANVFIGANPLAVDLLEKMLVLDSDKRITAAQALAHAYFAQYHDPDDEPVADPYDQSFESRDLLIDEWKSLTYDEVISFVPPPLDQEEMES
Sequence of Mitogen-activated protein kinase 10 (P53779 whole entry): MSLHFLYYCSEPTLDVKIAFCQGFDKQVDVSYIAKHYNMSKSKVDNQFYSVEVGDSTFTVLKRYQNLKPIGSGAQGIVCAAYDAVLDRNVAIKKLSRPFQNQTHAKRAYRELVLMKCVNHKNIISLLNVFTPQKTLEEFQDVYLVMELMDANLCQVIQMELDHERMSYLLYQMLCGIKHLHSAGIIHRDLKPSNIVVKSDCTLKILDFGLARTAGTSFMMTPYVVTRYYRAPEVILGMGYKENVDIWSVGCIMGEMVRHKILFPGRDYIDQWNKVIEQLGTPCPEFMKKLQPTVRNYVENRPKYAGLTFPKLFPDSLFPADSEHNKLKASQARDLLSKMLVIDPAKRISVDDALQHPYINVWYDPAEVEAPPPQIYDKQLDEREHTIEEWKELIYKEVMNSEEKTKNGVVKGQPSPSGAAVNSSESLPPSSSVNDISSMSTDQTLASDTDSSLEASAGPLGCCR

SMILES | IC50 [1] | IC50 [2] | IC50 [3] | IC50 [4] | IC50 [5] | remaining at 0.5 h, 2 µM [6] | Ratio [7] | Papp A→B at 2 h, 5 µM [8] | remaining at 0.5 h, 2 µM [9]
C[C@H](Nc1cc(-c2n[nH]c(=O)n2-c2ccc3ccccc3c2)ccn1)c1ccccc1 | 3900 nM | > 5000 nM | > 5000 nM | > 5000 nM | > 5000 nM |  |  |  | 
O=c1[nH]nc(-c2ccnc(Nc3cccnc3)c2)n1-c1ccc2ccccc2c1 | 250 nM | > 50000 nM | 3300 nM | 14000 nM | 950 nM |  |  |  | 
CCN1CCC(n2nc(-c3ccnc(NC4CCOCC4)c3)n(-c3ccc4ccccc4c3)c2=O)CC1 | 280 nM |  | > 5000 nM |  | 2000 nM |  |  |  | 
CC(=O)Nc1cc(-c2n[nH]c(=O)n2-c2ccc3ccccc3c2)ccn1 | 410 nM | > 50000 nM | 7200 nM | > 50000 nM | 1500 nM |  |  |  | 
O=c1[nH]nc(-c2ccnc(Nc3nccs3)c2)n1-c1ccc2ccccc2c1 | 210 nM | > 50000 nM | > 50000 nM | > 50000 nM | 650 nM |  |  |  | 
O=C(Nc1cc(-c2n[nH]c(=O)n2-c2ccc3ccccc3c2)ccn1)c1ccccc1 | 590 nM | > 50000 nM | > 50000 nM | > 50000 nM | 4400 nM |  |  |  | 
O=c1[nH]nc(-c2ccnc(NC3CCCC3)c2)n1-c1ccc2ccccc2c1 | 130 nM | > 50000 nM | > 50000 nM | > 50000 nM | 350 nM |  |  |  | 
O=c1n(C2CCNCC2)nc(-c2ccnc(NC3CCOCC3)c2)n1-c1ccc2ccccc2c1 | 160 nM | > 50000 nM | 4500 nM | > 5000 nM | 530 nM |  |  |  | 
O=C(Nc1cc(-c2n[nH]c(=O)n2-c2ccc3ccccc3c2)ccn1)C1CC1 | 120 nM | > 50000 nM | 4600 nM | > 50000 nM | 440 nM |  |  |  | 
O=c1[nH]nc(-c2ccnc(NC3CC3)c2)n1-c1ccc2ccccc2c1 | 130 nM | > 50000 nM | 3900 nM | > 50000 nM | 390 nM |  |  |  | 
O=c1[nH]nc(-c2ccnc(NC3CCOCC3)c2)n1-c1ccc2cc(Br)ccc2c1 | 430 nM | > 50000 nM | 4200 nM | > 50000 nM | 780 nM |  |  |  | 
Nc1ccc2cc(-n3c(-c4ccnc(NC5CCOCC5)c4)n[nH]c3=O)ccc2c1 | 950 nM | > 50000 nM | 1700 nM | > 50000 nM | 5300 nM |  |  |  | 
O=c1n(-c2ccccn2)nc(-c2ccnc(NC3CCOCC3)c2)n1-c1ccc2ccccc2c1 | 100 nM | > 50000 nM | 1400 nM | > 50000 nM | 150 nM | 59% | 1.5 | 5.1 ×10⁻⁶ cm/s | 1.5%
O=c1[nH]nc(-c2ccncc2)n1-c1ccc2ccccc2c1 | 16000 nM | > 50000 nM | > 50000 nM | > 50000 nM | 32000 nM |  |  |  | 
O=c1n(C2CCOC2)nc(-c2ccnc(NC3CCOCC3)c2)n1-c1ccc2ccccc2c1 (stereo not given) | 92 nM | > 50000 nM | 3800 nM | > 50000 nM | 320 nM | 27% | 1.6 | 21.8 ×10⁻⁶ cm/s | 1.6%
Nc1cccc2ccc(-n3c(-c4ccnc(NC5CCOCC5)c4)n[nH]c3=O)cc12 | 94 nM | > 50000 nM | 2600 nM | > 50000 nM | 570 nM |  |  |  | 

These reach a lower IC50 [1]. Values come first.

IC50 [1] | IC50 [2] | IC50 [3] | IC50 [4] | IC50 [5] | remaining at 0.5 h, 2 µM [6] | Ratio [7] | Papp A→B at 2 h, 5 µM [8] | remaining at 0.5 h, 2 µM [9] | SMILES
40 nM | > 50000 nM | 2200 nM | > 50000 nM | 110 nM |  |  |  |  | O=c1[nH]nc(-c2ccnc(Nc3ccccn3)c2)n1-c1ccc2ccccc2c1
70 nM | > 50000 nM | 1800 nM | > 50000 nM | 220 nM |  |  |  |  | O=c1[nH]nc(-c2ccnc(NC3CCC3)c2)n1-c1ccc2ccccc2c1
54 nM | > 50000 nM | > 500 nM | > 50000 nM | 380 nM |  |  |  |  | O=c1[nH]nc(-c2ccnc(NC3CCOCC3)c2)n1-c1ccc2cccc(F)c2c1
22 nM | > 50000 nM | 420 nM | > 50000 nM | 61 nM |  |  |  |  | O=c1n(CC2CCOCC2)nc(-c2ccnc(NC3CCCCC3)c2)n1-c1ccc2ccccc2c1
14 nM |  | 110 nM |  | 150 nM |  |  |  |  | O=c1[nH]nc(-c2ccnc(NC3CCOCC3)c2)n1-c1ccc2cccc(Cl)c2c1
36 nM |  | 900 nM |  | 170 nM |  |  |  |  | O=c1n(C2CCN(CC(F)(F)F)CC2)nc(-c2ccnc(NC3CCOCC3)c2)n1-c1ccc2ccccc2c1
24 nM | > 50000 nM | 360 nM | > 5000 nM | 58 nM |  |  |  |  | COC(=O)N1CCC(n2nc(-c3ccnc(NC4CCOCC4)c3)n(-c3ccc4ccccc4c3)c2=O)CC1
70 nM | > 50000 nM | 740 nM | > 50000 nM | 190 nM | 88% |  | 7.3 ×10⁻⁶ cm/s | 100% | O=c1[nH]nc(-c2ccnc(NC3CCOCC3)c2)n1-c1ccc2cc(F)ccc2c1
61 nM | > 50000 nM | 5700 nM | > 50000 nM | 470 nM |  |  |  |  | O=c1[nH]nc(-c2ccnc(Nc3ccccc3)c2)n1-c1ccc2ccccc2c1
